Results: US20050112573A1, “Method of detecting toxic substance” (priority 2001, published 2005)

Tested on: yeast genes (level of expressed mRNA)
Test: DNA chip analysis of expressed mRNA of yeast genes after 2 h culture with a toxic chemical substance
Format: cell-based, Saccharomyces cerevisiae S288C
How it was run: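 S. cerevisiae S288C grown at 25° C in YPD; toxicant added at log phase at growth-inhibitory, non-lethal levels for 2 h, untreated cells as control. Poly(A) mRNA reverse-transcribed with Cy3/Cy5-dUTP, hybridized to whole-genome chip at 65° C >12 h; value is fluorescence ratio versus untreated.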

C[S+](C)[O-] [(15), dimethylsulfoxide]
4.3: level of expressed mRNA in the presence of chemical substance/in its absence (gene YBR222C)
11.0: level of expressed mRNA in the presence of chemical substance/in its absence (gene YCR098C)
6.5: level of expressed mRNA in the presence of chemical substance/in its absence (gene YCL009C)
4.4: The level of expressed mRNA in the presence of chemical substance/absence: YCL044C (gene YCL044C)
3.5: level of expressed mRNA in the presence of chemical substance/in its absence (gene YBR029C)
0.7: level of expressed mRNA in the presence of chemical substance/in its absence (gene YAL044C) | The level of expressed mRNA in the presence of chemical substance/absence: YBL044W (gene YBL044W) | level of expressed mRNA in the presence of chemical substance/in its absence (gene YBR035C) | level of expressed mRNA in the presence of chemical substance/in its absence (gene YBR111C) | The level of expressed mRNA in the presence of chemical substance/absence: YDR250C (gene YDR250C) | The level of expressed mRNA in the presence of chemical substance/absence: YDR278C (gene YDR278C) | The level of expressed mRNA in the presence of chemical substance/absence: YGL041C (gene YGL041C) | The level of expressed mRNA in the presence of chemical substance/absence: YGL057C (gene YGL057C) | The level of expressed mRNA in the presence of chemical substance/absence: YGL223C (gene YGL223C)
0.5: The level of expressed mRNA in the presence of chemical substance/absence: YAR047C (gene YAR047C) | level of expressed mRNA in the presence of chemical substance/in its absence (gene YBR050C) | The level of expressed mRNA in the presence of chemical substance/absence: YDR078C (gene YDR078C) | The level of expressed mRNA in the presence of chemical substance/absence: YER182W (gene YER182W) | level of expressed mRNA in the presence of chemical substance/in its absence (gene YGL134W) | The level of expressed mRNA in the presence of chemical substance/absence: YGR211W (gene YGR211W)
3.1: level of expressed mRNA in the presence of chemical substance/in its absence (gene YAL012W) | level of expressed mRNA in the presence of chemical substance/in its absence (gene YAL038W) | level of expressed mRNA in the presence of chemical substance/in its absence (gene YCR048W)
2.4: level of expressed mRNA in the presence of chemical substance/in its absence (gene YDR380W) | level of expressed mRNA in the presence of chemical substance/in its absence (gene YER069W)
0.6: level of expressed mRNA in the presence of chemical substance/in its absence (gene YBR299W) | The level of expressed mRNA in the presence of chemical substance/absence: YDR133C (gene YDR133C) | The level of expressed mRNA in the presence of chemical substance/absence: YEL044W (gene YEL044W)
6.9: The level of expressed mRNA in the presence of chemical substance/absence: YAL018C (gene YAL018C)
2.9: level of expressed mRNA in the presence of chemical substance/in its absence (gene YGR282C)
0.4: The level of expressed mRNA in the presence of chemical substance/absence: YBR066C (gene YBR066C) | level of expressed mRNA in the presence of chemical substance/in its absence (gene YEL011W) | level of expressed mRNA in the presence of chemical substance/in its absence (gene YFR015C) | The level of expressed mRNA in the presence of chemical substance/absence: YGL088W (gene YGL088W)
8.2: level of expressed mRNA in the presence of chemical substance/in its absence (gene YDR502C)
21.4: level of expressed mRNA in the presence of chemical substance/in its absence (gene YCL064C)
0.8: The level of expressed mRNA in the presence of chemical substance/absence: YBR051W (gene YBR051W) | The level of expressed mRNA in the presence of chemical substance/absence: YCR007C (gene YCR007C) | The level of expressed mRNA in the presence of chemical substance/absence: YDR338C (gene YDR338C) | level of expressed mRNA in the presence of chemical substance/in its absence (gene YGL154C) | level of expressed mRNA in the presence of chemical substance/in its absence (gene YGL253W) | The level of expressed mRNA in the presence of chemical substance/absence: YGR243W (gene YGR243W)
1.1: level of expressed mRNA in the presence of chemical substance/in its absence (gene YAR071W) | The level of expressed mRNA in the presence of chemical substance/absence: YBR012C (gene YBR012C) | The level of expressed mRNA in the presence of chemical substance/absence: YBR013C (gene YBR013C) | level of expressed mRNA in the presence of chemical substance/in its absence (gene YBR183W) | The level of expressed mRNA in the presence of chemical substance/absence: YDL173W (gene YDL173W) | The level of expressed mRNA in the presence of chemical substance/absence: YDR090C (gene YDR090C) | The level of expressed mRNA in the presence of chemical substance/absence: YFL042C (gene YFL042C) | The level of expressed mRNA in the presence of chemical substance/absence: YGR038W (gene YGR038W) | The level of expressed mRNA in the presence of chemical substance/absence: YGR237C (gene YGR237C) | The level of expressed mRNA in the presence of chemical substance/absence: YGR266W (gene YGR266W)
1.4: The level of expressed mRNA in the presence of chemical substance/absence: YAL049C (gene YAL049C) | The level of expressed mRNA in the presence of chemical substance/absence: YDR128W (gene YDR128W) | The level of expressed mRNA in the presence of chemical substance/absence: YDR366C (gene YDR366C) | level of expressed mRNA in the presence of chemical substance/in its absence (gene YEL020C) | level of expressed mRNA in the presence of chemical substance/in its absence (gene YGR060W)
1.8: level of expressed mRNA in the presence of chemical substance/in its absence (gene YDR019C)
1.6: The level of expressed mRNA in the presence of chemical substance/absence: YBR063C (gene YBR063C) | level of expressed mRNA in the presence of chemical substance/in its absence (gene YBR068C) | The level of expressed mRNA in the presence of chemical substance/absence: YDL089W (gene YDL089W)
1.3: The level of expressed mRNA in the presence of chemical substance/absence: YBR287W (gene YBR287W) | The level of expressed mRNA in the presence of chemical substance/absence: YDL233W (gene YDL233W) | The level of expressed mRNA in the presence of chemical substance/absence: YDR271C (gene YDR271C) | The level of expressed mRNA in the presence of chemical substance/absence: YDR316W (gene YDR316W) | The level of expressed mRNA in the presence of chemical substance/absence: YDR425W (gene YDR425W) | The level of expressed mRNA in the presence of chemical substance/absence: YDR485C (gene YDR485C) | The level of expressed mRNA in the presence of chemical substance/absence: YGR156W (gene YGR156W) | The level of expressed mRNA in the presence of chemical substance/absence: YGR210C (gene YGR210C)
0.9: level of expressed mRNA in the presence of chemical substance/in its absence (gene YAL054C) | The level of expressed mRNA in the presence of chemical substance/absence: YBR129C (gene YBR129C) | level of expressed mRNA in the presence of chemical substance/in its absence (gene YDL022W) | The level of expressed mRNA in the presence of chemical substance/absence: YDR071C (gene YDR071C) | The level of expressed mRNA in the presence of chemical substance/absence: YDR140W (gene YDR140W) | The level of expressed mRNA in the presence of chemical substance/absence: YFR056C (gene YFR056C) | level of expressed mRNA in the presence of chemical substance/in its absence (gene YGL001C) | level of expressed mRNA in the presence of chemical substance/in its absence (gene YGL104C) | The level of expressed mRNA in the presence of chemical substance/absence: YGR198W (gene YGR198W) | The level of expressed mRNA in the presence of chemical substance/absence: YGR277C (gene YGR277C)
2.8: level of expressed mRNA in the presence of chemical substance/in its absence (gene YBR023C) | level of expressed mRNA in the presence of chemical substance/in its absence (gene YGL126W)
2.3: The level of expressed mRNA in the presence of chemical substance/absence: YAL014C (gene YAL014C) | The level of expressed mRNA in the presence of chemical substance/absence: YDL046W (gene YDL046W) | The level of expressed mRNA in the presence of chemical substance/absence: YFR026C (gene YFR026C) | The level of expressed mRNA in the presence of chemical substance/absence: YGR139W (gene YGR139W)
3.2: level of expressed mRNA in the presence of chemical substance/in its absence (gene YDR009W) | level of expressed mRNA in the presence of chemical substance/in its absence (gene YGL209W)
1.0: The level of expressed mRNA in the presence of chemical substance/absence: YAL017W (gene YAL017W) | level of expressed mRNA in the presence of chemical substance/in its absence (gene YBL001C) | The level of expressed mRNA in the presence of chemical substance/absence: YBL100C (gene YBL100C) | The level of expressed mRNA in the presence of chemical substance/absence: YBR124W (gene YBR124W) | The level of expressed mRNA in the presence of chemical substance/absence: YBR255W (gene YBR255W) | The level of expressed mRNA in the presence of chemical substance/absence: YBR281C (gene YBR281C) | level of expressed mRNA in the presence of chemical substance/in its absence (gene YCR037C) | The level of expressed mRNA in the presence of chemical substance/absence: YDR221W (gene YDR221W) | level of expressed mRNA in the presence of chemical substance/in its absence (gene YDR487C) | The level of expressed mRNA in the presence of chemical substance/absence: YER092W (gene YER092W)
0.3: The level of expressed mRNA in the presence of chemical substance/absence: YDR281C (gene YDR281C)
1.5: level of expressed mRNA in the presence of chemical substance/in its absence (gene YGL039W) | The level of expressed mRNA in the presence of chemical substance/absence: YGL045W (gene YGL045W)
1.9: The level of expressed mRNA in the presence of chemical substance/absence: YAR064W (gene YAR064W) | The level of expressed mRNA in the presence of chemical substance/absence: YBR162C (gene YBR162C) | The level of expressed mRNA in the presence of chemical substance/absence: YDR421W (gene YDR421W)
4.0: level of expressed mRNA in the presence of chemical substance/in its absence (gene YER026C) | level of expressed mRNA in the presence of chemical substance/in its absence (gene YGL022W)
1.7: The level of expressed mRNA in the presence of chemical substance/absence: YCL056C (gene YCL056C) | The level of expressed mRNA in the presence of chemical substance/absence: YDR109C (gene YDR109C) | The level of expressed mRNA in the presence of chemical substance/absence: YGL183C (gene YGL183C)
1.2: level of expressed mRNA in the presence of chemical substance/in its absence (gene YBR014C) | level of expressed mRNA in the presence of chemical substance/in its absence (gene YBR145W) | The level of expressed mRNA in the presence of chemical substance/absence: YDL193W (gene YDL193W) | level of expressed mRNA in the presence of chemical substance/in its absence (gene YDR410C) | The level of expressed mRNA in the presence of chemical substance/absence: YDR504C (gene YDR504C) | The level of expressed mRNA in the presence of chemical substance/absence: YGR250C (gene YGR250C)
